In patent US20220184037A1, “PHARMACEUTICAL AGENTS TARGETING CANCER STEM CELLS” (THE JOHNS HOPKINS UNIVERSITY, priority 2020, published 2022):

What was measured:
[1] = tested on: SOX2; test: Western blotting / flow cytometry of SOX2 expression in bladder cancer cells; type: cell-based, human
Procedure: (§1) Whole cell lysates were extracted using RIPA buffer (Thermo Scientific) supplemented with 10 μL/mL Halt™ Protease Inhibitor Cocktail Kit (Life Technologies) and 30 μL/mL Halt™ Phosphatase Inhibitor Cocktail Kit (Life Technologies). The protein concentrations were determined using a Pierce™ BCA Protein Assay Kit (Life Technologies), and the protein were separated on. NuPAGE 4-12% Bis-Tris Gel (Life Technologies) according to the manufacturer's protocol. COX2 (D5H5), NANOG (D73G4), OCT4 (D7O5Z), CD133 (A3G6K), Snail (C15D3), ZEBI (D80D3), Vimentin (D21H3), CDH2 (D4R1H), CDH1 (24E10), p-EGFR (D7A5), EGFR (D38B1), p-AKT (D9E), AKT (cat #, 9272), p-ERK (D13.14.4E), ERK (137F5), p-YAP1 (D9W2I), p-Src (cat #, 2101), Src (36D10), DNMT1 (D63A6), DNMT3A (D23G1), and DNMT3B (D7070) antibodies were obtained from Cell Signaling Technology (Danvers, Mass., USA), except for SOX2 (EPR3131; Abeam, Cambridge, USA), YAP1 (ab52771; Abeam), CD24 (cat #, AF5247-SP; R&D Systems, Minneapolis USA) and β-actin (A2228; Sigma-Aldrich). Secondary horseradish peroxidase (HRP)-conjugated antibodies were obtained from Cell Signaling Technology, and chemiluminescent detection of HRP-labeled antibodies was performed using Amersham ECL Prime Western Blotting Detection Reagent (GE Healthcare, Piscataway, USA). As loading control, β-actin was used.
For extracellular staining, cells (1×10^6/100 μL stain buffer) were incubated with PE-Vio770-conjugated anti-human CD133 (293C3; Miltenyi Biotec, Auburn, USA) or PE-conjugated anti-human CD24 antibody (cat #, 560991; BD Biosciences) for 30 min at 4° C. in dark. PE-Vio770-conjugated anti-IgG1κ Isotype (cat #, 130-098-563; Miltenyi Biotec) and PE-conjugated IgG2a, κ Isotype (cat #, 555574; BD Biosciences) were used as control for CD133 and CD24 staining, respectively. Staining for intracellular SOX2 was carried out using the BD Cytofix/Cytopem Fixation/Permeabilization Kit (BD Biosciences) according to manufacturer's protocol. The cells were incubated with Alexa Fluor 647-conjugated anti-SOX2 antibody (cat #, 560302; BD Biosciences) for 40 min at 4° C. in dark. Alexa Fluor 647-conjugated anti-IgG2a, κ Isotype (cat #, 558053; BD Biosciences) was used as control. Data were acquired on a BD FACSCalibur flow cytometer (BD Biosciences) using BD CellQuest Pro software (BD Biosciences) and analyzed with FlowJo software v10.1 (Tree Star, Ashland, USA).

[2] = tested on: DNMT 1 and 3A; test: Western blotting of DNMTs; type: cell-based, human; details: PGE2-treated cells
Procedure: as §1

[3] = tested on: bladder cancer cells (urothelial CSCs); test: Sphere formation assay; type: cell-based, human; details: for sphere-forming ability / sphere formation: COX2 inhibitor or EP4 antagonist alone
Procedure: Sphere formation was induced by culturing cells (2×10^4/well) in […] F12 50/50 Mix (Mediatech) supplemented with B-27 (Life Technologies), 20 ng/mL FGF-basic (Peprotech), 20 ng/mL EGF (Peprotech). Cell culture was performed in ultra-low attachment 6 well plates (Corning, Lowell, USA) for 10 days. The medium was replaced every other day. Sphere formation was evaluated using the inverted phase-contrast microscope, and single sphere with a diameter larger than 100 gm was counted using NIS-Elements Microscope Imaging Software. To redifferentiate spheres, spheres were plated in standard growth medium with 10% FBS in dishes supporting cell attachment, and incubated for 7 days. For self-renewal assay, primary spheres were collected by gentle centrifugation (5 min at 400×g), dissociated with Stempro Accutase Cell Dissociation Reagent (Life Technologies), and mechanically disrupted with a pipette. The cell suspension was sieved through 40 μm cell strainer cap filter to achieve a single-cell suspension, and then equal numbers of alive cells were plated in ultralow attachment plates to generate the second spheres. Again, spheres were counted on day 14 and digested to generate the third Spheres. All the experiments were performed in triplicate and repeated at least three times.

[4] = tested on: let-7; test: let-7 expression by Q-RT-PCR; type: cell-based, human; details: parental or spheroid bladder cancer cells
Procedure: (§2) Total RNA from cell lines was isolated using the RNeasy Plus Mini kit (Qiagen, Valencia, USA) according to the manufacturer's protocol. Total RNA extraction from bladder tissue was performed with the QIAzol Lysis Reagent (Qiagen) followed by phenol extraction and ethanol precipitation. Total RNA was eluted in DEPC treated water and stored at −80 ° C. Total RNA extraction from urine was performed using the MirVana miRNA Isolation Kit (Ambion, Austin, USA). These total RNA were converted to cDNA using the SuperScript III First-Strand Synthesis System (Life technologies, Carlsbad, USA), which was then used as a template for Q-RT-PCR. Q-RT-PCR was performed using the Fast SYBR Green Master Mix (Thermo Fisher Scientific, Waltham, USA) on a 7900HT Fast Real-Time PCR System (Life technologies) in triplicate. Micro RNA (miRNA) extraction was performed using the MirVana miRNA Isolation Kit, and was reverse transcribed using TaqMan reverse transcription kit (Applied Biosystems, Foster City, USA) and miRNA-specific RT primers provided with TaqMan microRNA assays (Applied Biosystems). Q-RT-PCR for miRNAs was performed using the TaqMan Universal PCR Master Mix according to the manufacturer's protocol. SDS software (Applied Biosystems) was used to determine cycle threshold (Ct) values. Expression level was quantified relative to β-actin for mRNA and RNU6B for miRNA using the 2-ΔΔCt method (12).
For demethylation, cells (1×10^6/T-75 flask) were treated with […] of the demethylating agent 5-Aza-dC (Sigma) dissolved in 50% acetic acid or were mock-treated with phosphate buffered saline (PBS) including the same amount of acetic acid every 24 hours for 5 days. When combined with the histone deacetylase inhibitor TSA (Sigma), 300 nmol/L TSA was added to the medium for the final 24 hours.

[5] = tested on: panel of miRNAs in BFTC 905 cells; test: Expression of a panel of miRNAs; type: cell-based, human; details: addition of PGE2 to COX2 inhibitor
Procedure: as §2

[6] = tested on: let-7 host gene MIRLET7BHG promoter; test: Bisulfite sequencing of let-7 host gene promoter methylation; type: cell-based, human; details: 10 μM celecoxib, 2 μM PGE2, or 5 μM 5-Aza-dC for 5 days
Procedure: Cell pellets were digested with 1% sodium dodecyl sulfate and 50 μg/mL proteinase K (Roche, Nutley, USA) at 48° C. overnight. Isolation of genomic DNA from cell lines was performed with the phenol-chloroform extraction protocol followed by ethanol precipitation. Bisulfite treatment was conducted using an EpiTect Bisulfite K ft (QIAGEN, Valencia, USA), and was subsequently amplified via PCR using primers as shown in the following table. PCR products were purified using the QIAquick Gel Extraction kit (Qiagen), and sequenced by Genewiz DNA sequencing service (Genewiz, South Plainfield, USA). The data were analyzed using the Sequence Scanner v1.0 software (Life technologies). A methylation frequency of ≥50% of total CpG sites within the amplified region was considered “methylation-positive”. For demethylation, cells ([…]) dissolved in 50% acetic acid or were mock-treated with phosphate buffered saline (PBS) including the same amount of acetic acid every 24 hours for 5 days. When combined with the histone deacetylase inhibitor TSA (Sigma), 300 nmol/L TSA was added to the medium for the final 24 hours.

[7] = tested on: COX2; test: Western blotting of COX2 expression in bladder cancer cells; type: cell-based, human
Procedure: as §1

[8] = Body weight of treated mice; type: in vivo; details: mouse, in vivo
Procedure: For therapeutic efficacy, mice were randomly assigned into experimental groups (five mice per group) when tumors reached a volume of […]. For celecoxib and/or VP treatment, celecoxib (5 mg/kg) was administered via intraperitoneal (i.p.) injection once a day (17), and VP (50 mg/kg) was administered via i.p. every other day (18). EP4 antagonist ONO-AE3-208 (10 mg/kg) was administered via i.p. once a day (19). Control was applied with same volume (10 μL per injection) of 10% dimethyl sulphoxide in 1% TWEEN 80 (Sigma-Aldrich). For GEM and CDDP (GC) treatment (i.p.), CDDP (6 mg/kg) was only applied after the first GEM (60 mg/kg) treatment on day 2, followed by three consecutive treatments of GEM on day 5, 8 and 11 (17). The next cycle was started on day 18, and the treatment was continued until tumor reached 2 cm in diameter. For erlotinib treatment, the mice were treated once a day, 6 days per week, by oral gavage with erlotinib (100 mg/kg) or control (PBS containing 0.5% methyl cellulose (Sigma-Aldrich) and 0.1% TWEEN 80) (20). Tumor size was measured at least every three days. Therapeutic efficacy was assessed using percentage change after treatment related to tumor size before treatment. […]

[9] = tested on: YAP1; test: Western blotting of YAP1 expression in bladder cancer cells; type: cell-based, human
Procedure: as §1

[10] = addition of PGE2 to celecoxib treatment
[11] = COX2 inhibitor or EP4 antagonist alone (FIG. 2A-B, S7)

Compound: CCCCC[C@H](O)/C=C/[C@H]1[C@H](O)CC(=O)[C@@H]1C/C=C\CCCC(=O)O [PGE2, Prostaglandin E2]
- celecoxib-repressed SOX2 expression [1, 10]: restored
- DNMT 1 and 3A expression [2]: upregulated
- celecoxib-repressed sphere-forming ability [3, 10]: restored
- let-7 expression [4]: reduced its expression
- expression of several miRNAs [5]: reduced these expression
- promoter methylation of the let-7 host gene [6]: Promoter methylation of the let-7 host gene was observed

Compound: C=Cc1c(C)c2cc3nc(cc4[nH]c(cc5nc(cc1[nH]2)C(C)=C5CCC(=O)O)c(CCC(=O)OC)c4C)[C@@]1(C)C3=CC=C(C(=O)OC)[C@H]1C(=O)OC [VP, 3-[(23S,24R)-14-ethenyl-5-(3-methoxy-3-oxopropyl)-22,23-bis(methoxycarbonyl)-4,10,15,24-tetramethyl-25,26,27,28-tetraazahexacyclo[16.6.1.1^3,6.1^8,11.1^13,16.0^19,24]octacosa-1,3,5,7,9,11(27),12,14,16,18(25),19,21-dodecaen-9-yl]propanoic acid]
- expression of SOX2 and its related molecules ([1]; VP alone): reduced expression
- COX2 expression ([7]; VP alone): induced COX2 expression in a dose-dependent manner
- body weight loss [8]: did not observe body weight loss

Compound: CCc1cccc2c3c([nH]c12)C(CC)(CC(=O)O)OCC3 (stereo not shown) [etodolac, Etodolac]
- SOX2 expression [1, 11]: dramatic reduction
- sphere-forming ability / sphere formation [3]: dramatic reduction

Compound: CC(C(=O)Nc1cc(C#N)ccc1CCCC(=O)O)c1ccc(F)c2ccccc12 (stereo not shown) [EP4-specific antagonist, ONO-AE3-208]
- SOX2 expression [1, 11]: dramatic reduction
- sphere-forming ability / sphere formation [3]: dramatic reduction

Compound: N.N.[Cl][Pt][Cl] [cisplatin, Cisplatin]
- SOX2 expression ([1]; CDDP chemotherapy alone): overexpression
- COX2 expression ([7]; CDDP chemotherapy alone): overexpression
- YAP1 expression ([9]; CDDP chemotherapy alone): overexpression
- sphere formation ([3]; CDDP chemotherapy alone): increased sphere formation

Compound: EGF: Recombinant human epidermal growth factor
- SOX2 expression ([1]; EGF-stimulated EGFR signaling): increased
- YAP1 expression ([9]; EGF-stimulated EGFR signaling): increased

Compound: Nc1ncn([C@H]2C[C@H](O)[C@@H](CO)O2)c(=O)n1 [5-Aza-dC, 5-Aza-2′-deoxycytidine]
- let-7 expression [4]: restoration of let-7 expression
- promoter methylation of the let-7 host gene [6]: demethylated

Compound: CC(C)(C)n1nc(-c2ccc(Cl)cc2)c2c(N)ncnc21 [Src inhibitor, PP2]
- COX2 inhibitor-induced YAP1 expression ([9]; treatment with the Src inhibitor (FIG. S8H)): downregulated
